{"source": "patent US20070134261A1", "about": "“Effectors of innate immunity” (priority 2001, published 2007)", "tested_on": "human A549 epithelial cells", "assay": "Resgen Human cDNA arrays (PRHU03-S3) of A549 cells treated with peptide (Tables 21-26)", "conditions": "50 μg/ml, 4 h", "note": "Values joined by “and” are separate entries in the source; they are usually repeats but may differ in a detail not shown here. Identical values can stand only once.", "data": [{"smiles": "CC[C@H](C)[C@H](N)C(=O)N[C@@H](CC(C)C)C(=O)N1CCC[C@H]1C(=O)N[C@@H](Cc1c[nH]c2ccccc12)C(=O)N[C@@H](CCCCN)C(=O)N[C@@H](Cc1c[nH]c2ccccc12)C(=O)N1CCC[C@H]1C(=O)N[C@@H](Cc1c[nH]c2ccccc12)C(=O)N[C@@H](Cc1c[nH]c2ccccc12)C(=O)N1CCC[C@H]1C(=O)N[C@@H](Cc1c[nH]c2ccccc12)C(=O)N[C@@H](CCCNC(=N)N)C(=O)N[C@@H](CCCNC(=N)N)C(N)=O", "note": "[SEQ ID NO: 2]", "values": [{"measurement": "Ratio Peptide:Unstimulated, catenin (cadherin-associated protein), delta 1", "setting": "AA025276", "value": 1.2}, {"measurement": "Ratio Peptide:Unstimulated, integrin, beta 3", "setting": "AA037229", "value": 2.7}, {"measurement": "Ratio Peptide:Unstimulated, Epstein-Barr virus induced polynucleotide 2", "setting": "AA037376", "value": 1.6}, {"measurement": "Ratio Peptide:Unstimulated, disintegrin and metalloproteinase domain 10", "setting": "AA043347", "value": 1.5}, {"measurement": "Ratio Peptide:Unstimulated, MAP kinase kinase kinase kinase 3", "setting": "AA043537", "value": 0.45}, {"measurement": "Ratio Peptide:Unstimulated, protein tyrosine phosphatase, receptor type, J", "setting": "AA045326", "value": 3.6}, {"measurement": "Ratio Peptide:Unstimulated, MAP kinase kinase kinase 12", "setting": "AA053674", "value": 0.20}, {"measurement": "Ratio Peptide:Unstimulated, integrin, alpha 7", "setting": "AA055979", "value": 0.57}, {"measurement": "Ratio Peptide:Unstimulated, leukocyte immunoglobulin-like receptor, subfamily B (with TM and ITIM domains), member 4", "setting": "AA076350", "value": 0.75}, {"measurement": "Ratio Peptide:Unstimulated, phospholipase A2 receptor 1", "setting": "AA086038", "value": 2.8}, {"measurement": "Ratio Peptide:Unstimulated, IL-8", "setting": "AA102526", "value": 3.6}, {"measurement": "Ratio Peptide:Unstimulated, cadherin 11, type 2, OB-cadherin (osteoblast)", "setting": "AA136983", "value": 0.23}, {"measurement": "Ratio Peptide:Unstimulated, TNF R superfamily, member 1B", "setting": "AA150416, listed as ID 2", "value": "18 and 17.09"}, {"measurement": "Ratio Peptide:Unstimulated, MAP kinase 9", "setting": "AA157286", "value": 0.57}, {"measurement": "Ratio Peptide:Unstimulated, macrophage stimulating 1 R", "setting": "AA173454", "value": 1.7}, {"measurement": "Ratio Peptide:Unstimulated, killer cell lectin-like receptor subfamily C, member 2", "setting": "AA190627", "value": 9.7}, {"measurement": "Ratio Peptide:Unstimulated, TNF R superfamily, member 11b", "setting": "AA194983, listed as ID 2", "value": "5.3 and 5.29"}, {"measurement": "Ratio Peptide:Unstimulated, disintegrin and metalloproteinase domain 8", "setting": "AA279188", "value": 3.1}, {"measurement": "Ratio Peptide:Unstimulated, BCL2-interacting killer (apoptosis-inducing)", "setting": "AA291323", "value": 1.9}, {"measurement": "Ratio Peptide:Unstimulated, disintegrin-like and metalloprotease with thrombosondin type 1 motif, 3", "setting": "AA398492", "value": 0.32}, {"measurement": "Ratio Peptide:Unstimulated, MAP kinase kinase kinase 4", "setting": "AA402447", "value": 0.37}, {"measurement": "Ratio Peptide:Unstimulated, prostaglandin E receptor 3 (subtype EP3)", "setting": "AA406362", "value": 4.1}, {"measurement": "Ratio Peptide:Unstimulated, MAP kinase kinase kinase kinase 4", "setting": "AA417711", "value": 0.96}, {"measurement": "Ratio Peptide:Unstimulated, MAP kinase 8 interacting protein 2", "setting": "AA418293", "value": 0.07}, {"measurement": "Ratio Peptide:Unstimulated, integrin, alpha 3 (antigen CD49C, alpha 3 subunit of VLA-3 receptor)", "setting": "AA424695", "value": 0.8}, {"measurement": "Ratio Peptide:Unstimulated, cadherin 3, type 1, P-cadherin (placental)", "setting": "AA425217", "value": 0.43}, {"measurement": "Ratio Peptide:Unstimulated, integrin, alpha E", "setting": "AA425451", "value": 180}, {"measurement": "Ratio Peptide:Unstimulated, formyl peptide receptor 1", "setting": "AA425767", "value": 3.1}, {"measurement": "Ratio Peptide:Unstimulated, MAP kinase kinase 2", "setting": "AA425826", "value": 1.20}, {"measurement": "Ratio Peptide:Unstimulated, cytokine inducible SH2-containing protein", "setting": "AA427521", "value": 33}, {"measurement": "Ratio Peptide:Unstimulated, integrin, beta 5", "setting": "AA434397", "value": 0.32}, {"measurement": "Ratio Peptide:Unstimulated, protein tyrosine phosphatase, non-receptor type 9", "setting": "AA434420", "value": 3.5}, {"measurement": "Ratio Peptide:Unstimulated, protein tyrosine phosphatase, non-receptor type 12", "setting": "AA446259", "value": 2.3}, {"measurement": "Ratio Peptide:Unstimulated, caspase 8, apoptosis-related cysteine protease", "setting": "AA448468", "value": 2.2}, {"measurement": "Ratio Peptide:Unstimulated, growth factor receptor-bound protein 2", "setting": "AA449831", "value": 2.2}, {"measurement": "Ratio Peptide:Unstimulated, endothelin receptor type A", "setting": "AA450009", "value": 12}, {"measurement": "Ratio Peptide:Unstimulated, integrin, alpha 1", "setting": "AA450324", "value": 0.41}, {"measurement": "Ratio Peptide:Unstimulated, Human proteinase activated R-2", "setting": "AA454652", "value": 6.1}, {"measurement": "Ratio Peptide:Unstimulated, IL-11 R alpha", "setting": "AA454657", "value": 2.4}, {"measurement": "Ratio Peptide:Unstimulated, CSF 3 R", "setting": "AA458507", "value": 1.9}, {"measurement": "Ratio Peptide:Unstimulated, integrin, alpha 10", "setting": "AA460959", "value": 0.33}, {"measurement": "Ratio Peptide:Unstimulated, MAP kinase kinase kinase 7", "setting": "AA460969", "value": 0.97}, {"measurement": "Ratio Peptide:Unstimulated, NK cell R", "setting": "AA463248", "value": 2.5}, {"measurement": "Ratio Peptide:Unstimulated, integrin, alpha 2 (CD49B, alpha 2 subunit of VLA-2 receptor)", "setting": "AA463257", "value": 0.9}, {"measurement": "Ratio Peptide:Unstimulated, IL-1 receptor, type I", "setting": "AA464526", "value": 0.34}, {"measurement": "Ratio Peptide:Unstimulated, protein tyrosine phosphatase, receptor type, E", "setting": "AA464542", "value": 0.23}, {"measurement": "Ratio Peptide:Unstimulated, protein tyrosine phosphatase, receptor type, N polypeptide 2", "setting": "AA464590", "value": 0.02}, {"measurement": "Ratio Peptide:Unstimulated, protein tyrosine phosphatase, receptor-type, Z polypeptide 1", "setting": "AA476461", "value": 0.63}, {"measurement": "Ratio Peptide:Unstimulated, intercellular adhesion molecule 3", "setting": "AA479188", "value": 0.12}, {"measurement": "Ratio Peptide:Unstimulated, protein tyrosine phosphatase, receptor type, C-associated protein", "setting": "AA481547", "value": 5.1}, {"measurement": "Ratio Peptide:Unstimulated, IL-18 receptor 1", "setting": "AA482489", "value": 0.50}, {"measurement": "Ratio Peptide:Unstimulated, vitamin D R", "setting": "AA485226", "value": 2.5}, {"measurement": "Ratio Peptide:Unstimulated, integrin, beta 4", "setting": "AA485668", "value": 0.8}, {"measurement": "Ratio Peptide:Unstimulated, IL-10 R beta", "setting": "AA486393, listed as ID 2", "value": "2.5 and 2.51"}, {"measurement": "Ratio Peptide:Unstimulated, calcium and integrin binding protein", "setting": "AA487575", "value": 2.8}, {"measurement": "Ratio Peptide:Unstimulated, TRAF and TNF receptor-associated protein", "setting": "AA488650", "value": 0.75}, {"measurement": "Ratio Peptide:Unstimulated, cytokine-inducible kinase", "setting": "AA489234", "value": 0.41}, {"measurement": "Ratio Peptide:Unstimulated, small inducible cytokine subfamily A (Cys—Cys), member 18", "setting": "AA495985", "value": 0.32}, {"measurement": "Ratio Peptide:Unstimulated, programmed cell death 8 (apoptosis-inducing factor)", "setting": "AA496348", "value": 1.07}, {"measurement": "Ratio Peptide:Unstimulated, melanoma adhesion molecule", "setting": "AA497002", "value": 7.9}, {"measurement": "Ratio Peptide:Unstimulated, TNF receptor-associated factor 3", "setting": "AA504259", "value": 0.15}, {"measurement": "Ratio Peptide:Unstimulated, apoptosis-related protein PNAS-1", "setting": "AA521316", "value": 2.2}, {"measurement": "Ratio Peptide:Unstimulated, complement component receptor 2", "setting": "AA521362", "value": 26}, {"measurement": "Ratio Peptide:Unstimulated, laminin R 1 (67 kD, ribosomal protein SA)", "setting": "AA629897", "value": 0.4}, {"measurement": "Ratio Peptide:Unstimulated, protein tyrosine phosphatase, receptor type, U", "setting": "AA644448", "value": 6.1}, {"measurement": "Ratio Peptide:Unstimulated, integrin, beta 3", "setting": "AA666269", "value": 2.6}, {"measurement": "Ratio Peptide:Unstimulated, regulator of G-protein signaling 5", "setting": "AA668470", "value": 0.27}, {"measurement": "Ratio Peptide:Unstimulated, T cell R delta locus", "setting": "AA670107", "value": 2.7}, {"measurement": "Ratio Peptide:Unstimulated, small inducible cytokine A3 (homologous to mouse Mip-1a)", "setting": "AA677522", "value": 1.79}, {"measurement": "Ratio Peptide:Unstimulated, protein tyrosine phosphatase, non-receptor type 13", "setting": "AA679180", "value": 1.7}, {"measurement": "Ratio Peptide:Unstimulated, protein tyrosine phosphatase, non-receptor type 3", "setting": "AA682684", "value": 1.0}, {"measurement": "Ratio Peptide:Unstimulated, v-SNARE R", "setting": "AA704511", "value": 11}, {"measurement": "Ratio Peptide:Unstimulated, adenosine A3 R", "setting": "AA863086", "value": 2.0}, {"measurement": "Ratio Peptide:Unstimulated, integrin, alpha 9", "setting": "AA865557", "value": 0.86}, {"measurement": "Ratio Peptide:Unstimulated, small inducible cytokine subfamily B (Cys-X-Cys), member 10", "setting": "AA878880", "value": 0.50}, {"measurement": "Ratio Peptide:Unstimulated, interleukin enhancer binding factor 2", "setting": "AA894687", "value": 1.3}, {"measurement": "Ratio Peptide:Unstimulated, IL-2 receptor, alpha", "setting": "AA903183", "value": 0.41}, {"measurement": "Ratio Peptide:Unstimulated, small inducible cytokine subfamily A (Cys—Cys), member 23", "setting": "AA916836", "value": 0.38}, {"measurement": "Ratio Peptide:Unstimulated, CD2", "setting": "AA927710, listed as ID 2", "value": "2.6 and 2.62"}, {"measurement": "Ratio Peptide:Unstimulated, prostaglandin E receptor 1 (subtype EP1)", "setting": "AA972293", "value": 7.2}, {"measurement": "Ratio Peptide:Unstimulated, IL-12 receptor, beta 2", "setting": "AA977194", "value": 0.67}, {"measurement": "Ratio Peptide:Unstimulated, protein tyrosine phosphatase, non-receptor type 11", "setting": "AA995560", "value": 2.9}, {"measurement": "Ratio Peptide:Unstimulated, integrin beta 4 binding protein", "setting": "AI017019", "value": 1.7}, {"measurement": "Ratio Peptide:Unstimulated, VIP R 2", "setting": "AI057229", "value": 3.1}, {"measurement": "Ratio Peptide:Unstimulated, orphan seven-transmembrane receptor, chemokine related", "setting": "AI131555", "value": 1.06}, {"measurement": "Ratio Peptide:Unstimulated, IL-1 R antagonist homolog 1", "setting": "AI167887, listed as ID 2", "value": "3086 and 3085.96"}, {"measurement": "Ratio Peptide:Unstimulated, MAP kinase 8 interacting protein 2", "setting": "AI202738", "value": 0.16}, {"measurement": "Ratio Peptide:Unstimulated, disintegrin and metalloproteinase domain 18", "setting": "AI205675", "value": 0.40}, {"measurement": "Ratio Peptide:Unstimulated, regulator of G-protein signaling 20", "setting": "AI264190", "value": 48}]}]}
